Source: patent US20240398771A1, “TREATMENT OF SCLERODERMA AND RAYNAUD'S SYNDROME” (Aisa Pharma, Inc., priority 2023, published 2024)

Tests used:
Format in all cases: in vivo, human
participants with SSc-RP [1] = assay: SHAQ Visual Analog Scale - Pain
Description: (§1) Results: Patients in the study were administered the Scleroderma Health Assessment Questionnaire (SHAQ) at the time of study entry and during clinic visits following the treatment period. The study is a two-part, parallel arm design, prospective, double-blind, randomized study conducted in Australia (Flinders Medical Center). 27 patients were randomized into the first phase of the study, following which a DSMB meeting was held, which reviewed data on the primary study endpoint and key Raynaud's secondary endpoints. Data on the SHAQ was not available for the DSMB to review. The mITT population, in which any data was available post treatment was 24 patients was the analysis population for this first part of the study. The second part (i.e., part B) of the study will randomize 36 patients in a double blind, randomized, prospective, placebo controlled, crossover study. In the first part (i.e., Part A) of the study for which data is presented, patients were randomized into 6 groups, cilnidipine at two doses (10 and 20 mg) alone and in combination with tadalafil 5 mg, tadalafil 5 mg alone, and placebo. […] The DSMB recommended that the study proceed into its double blind prospective cross overpowered second phase and compare cilnidipine 20 mg alone to placebo. […] Cilnidipine treatment may reduce patient-reported SSc disease disability compared to placebo • b. Cilnidipine treatment may reduce patient-reported SSc disease alternative disability compared to placebo • c. Cilnidipine treatment may reduce patient-reported SSc disease pain* compared to placebo • d. Cilnidipine treatment may reduce patient-reported SSc disease severity compared to placebo • e. Cilnidipine treatment may reduce patient-reported SSc disease skin ulcer severity rating compared to placebo • f Cilnidipine treatment may reduce patient-reported SSc disease breathing difficulty compared to placebo • g. […] SSc disease pain comprises not only pain from Raynaud's but joint pain, headache, odynophagia, back pain, pain from skin ulceration, and neuropathic pain). Table E includes results of the Scleroderma Health Assessment Questionnaire.
Pain on the SHAQ outcome measure on the first line in table F is a composite of all pain experienced in patients with SSc, comprising joint pain, back pain, headache, odynophagia, skin ulcer related discomfort, Raynaud's, and neuropathic pain. Aisa Pharma believes, based on the biologic attributes and actions of cilnidipine that differ from most dihydropyridine calcium channel antagonists that cilnidipine might have direct analgesic effects in certain pain conditions and in fact has been designated to receive evaluation through the NIH-NINDS Preclinical Pain Screening Platform Program to investigate the drug in multiple in vitro and in vivo preclinical models of pain that are validated and predictive of effects in man.

participants with SSc-RP [2] = assay: SHAQ Visual Analog Scale - Breathing Problems; parameters: Visual Analog Scale-Breathing Problems, Baseline, Mean / Visual Analog Scale-Breathing Problems, Baseline, Median / Visual Analog Scale-Breathing Problems, In Clinic Visit (Day 12), Mean / Visual Analog Scale-Breathing Problems, In Clinic Visit (Day 12), Median / Visual Analog Scale-Breathing Problems, Change from Baseline, Mean / Visual Analog Scale-Breathing Problems, Change from Baseline, Median: scale not given here; conditions: for % improvement in Breathing (median): mITT
Description: as §1

participants with SSc-RP [3] = assay: SHAQ Visual Analog Scale - Raynaud's; parameters: Visual Analog Scale-Raynaud's, Baseline, Mean / Visual Analog Scale-Raynaud's, Baseline, Median / Visual Analog Scale-Raynaud's, In Clinic Visit (Day 12), Mean / Visual Analog Scale-Raynaud's, In Clinic Visit (Day 12), Median: scale not given here; conditions: Modified ITT, Part A
Excerpt: The SHAQ includes a Raynaud's VAS, which will be reported at screening and each in-clinic visit. The absolute change in Raynaud-VAS, assessed by the participants response to the SHAQ question ‘In the past 7 days, how much have your Raynaud's interfered with your daily activities?’ at baseline and the end of each dosing period will be calculated similar to frequency data as before. […]

participants with SSc-RP [4] = assay: SHAQ Visual Analog Scale - overall disease severity; parameters: Overall Change in Severity, Baseline, Mean / Overall Change in Severity, Baseline, Median / Overall Change in Severity, Change from Baseline, Mean / Overall Change in Severity, Change from Baseline, Median: scale not given here
Description: as §1

[5] = Cilnidipine 20 mg, Modified ITT, Part A
[6] = Cilnidipine 10 mg, Modified ITT, Part A
[7] = Pooled Cilnidipine (10 mg or 20 mg, N = 7), mITT Part A
[8] = Tadalafil 5 mg, Modified ITT, Part A

COCCOC(=O)C1=C(C)NC(C)=C(C(=O)OC/C=C/c2ccccc2)C1c1cccc([N+](=O)[O-])c1 (stereo not shown) [Cilnidipine, 1,4-dihydro-2,6-dimethyl,4-(3-nitrophenyl)-3,5-pyridinedicarboxylic acid 2-methoxyethyl (2 E)-3-phenyl-2-propenyl ester]
VAS- PAIN, Baseline on a 0-10 VAS (participants with SSc-RP [1]; Cilnidipine 20 mg (n = 3), footnote *): *Baseline was 2.17 on a 0-10 VAS | Visual Analog Scale-Pain, Baseline, Median (participants with SSc-RP [1]; [5]): 1.500 | patient-reported SSc disease pain compared to placebo (participants with SSc-RP [1]; Example 4, SHAQ, mITT Part A): may reduce | Visual Analog Scale-Breathing Problems, Baseline, Median (participants with SSc-RP [2]; [6]): 0.000 | % improvement in Breathing (median) (participants with SSc-RP [2]; Cilnidipine 20 mg (n = 3), SHAQ): 67% (median) | VAS - Breathing problems, Baseline on a 0-10 VAS (participants with SSc-RP [2]; Cilnidipine 20 mg (n = 3), last footnote): **Baseline was 1.13 on a 0-10 VAS | Visual Analog Scale-Breathing Problems, Baseline, Median (participants with SSc-RP [2]; [5]): 1.200 | patient-reported SSc disease breathing difficulty compared to placebo (participants with SSc-RP [2]; Example 4, SHAQ, mITT Part A): may reduce | % improvement in Breathing (median) (participants with SSc-RP [2]; Pooled Cilnidipine (n = 7), SHAQ): 41% (median) | Visual Analog Scale-Raynaud's, Baseline, Mean (participants with SSc-RP [3]; Cilnidipine 10 mg): 1.600 | Visual Analog Scale-Raynaud's, Baseline, Median (participants with SSc-RP [3]; Cilnidipine 10 mg): 1.000 | Visual Analog Scale-Raynaud's, Change from Baseline, Median (participants with SSc-RP [3]; Cilnidipine 10 mg): 0.350 | Visual Analog Scale-Raynaud's, In Clinic Visit (Day 12), Median (participants with SSc-RP [3]; Cilnidipine 10 mg): 1.700 | Visual Analog Scale-Raynaud's, Baseline, Mean (participants with SSc-RP [3]; Cilnidipine 20 mg): 2.300 | Visual Analog Scale-Raynaud's, Baseline, Median (participants with SSc-RP [3]; Cilnidipine 20 mg): 2.500 | Visual Analog Scale-Raynaud's, Change from Baseline, Median (participants with SSc-RP [3]; Cilnidipine 20 mg): −1.100 | Visual Analog Scale-Raynaud's, In Clinic Visit (Day 12), Median (participants with SSc-RP [3]; Cilnidipine 20 mg): 1.100 | Visual Analog Scale-Raynaud's, Percent Change from Baseline, Median (participants with SSc-RP [3]; Cilnidipine 20 mg): −44.00% | Overall Change in Severity, Baseline, Median (participants with SSc-RP [4]; [6]): 1.900 | Overall Change in Severity, Change from Baseline, Mean (participants with SSc-RP [4]; [6]): −0.900 | Overall Change in Severity, Change from Baseline, Median (participants with SSc-RP [4]; [6]): −0.950 | Overall Change in Severity, Baseline, Median (participants with SSc-RP [4]; [5]): 2.900 | Overall Change in Severity, Change from Baseline, Median (participants with SSc-RP [4]; [5]): −1.600 | Overall Change in Severity, In Clinic Visit (Day 12), Median (participants with SSc-RP [4]; [5]): 1.200 | Overall Change in Severity, Percent Change from Baseline, Median (participants with SSc-RP [4]; [5]): −60.00% | patient-reported SSc disease severity compared to placebo (participants with SSc-RP [4]; Example 4, SHAQ, mITT Part A): may reduce | SHAQ patient reported disease severity: Baseline, Mean (SD) (participants with SSc-RP [4]; [7]): 2.700 (2.3424) | SHAQ patient reported disease severity: Baseline, Median (participants with SSc-RP [4]; [7]): 2.900

CN1CC(=O)N2[C@H](c3ccc4c(c3)OCO4)c3[nH]c4ccccc4c3C[C@@H]2C1=O [Tadalafil]
Visual Analog Scale-Pain, Baseline, Mean (participants with SSc-RP [1]; [8]): 3.167 | Visual Analog Scale-Pain, Baseline, Median (participants with SSc-RP [1]; [8]): 2.900 | Visual Analog Scale-Pain, Change from Baseline, Mean (participants with SSc-RP [1]; [8]): −0.300 | Visual Analog Scale-Pain, Change from Baseline, Median (participants with SSc-RP [1]; [8]): −0.100 | Visual Analog Scale-Pain, In Clinic Visit (Day 12), Mean (participants with SSc-RP [1]; [8]): 2.700 | Visual Analog Scale-Pain, In Clinic Visit (Day 12), Median (participants with SSc-RP [1]; [8]): 2.150 | Visual Analog Scale-Pain, Percent Change from Baseline, Mean (participants with SSc-RP [1]; [8]): −14.24% | Visual Analog Scale-Pain, Percent Change from Baseline, Median (participants with SSc-RP [1]; [8]): −4.55% | Visual Analog Scale-Breathing Problems, Baseline, Mean (participants with SSc-RP [2]; [8]): 1.025 | Visual Analog Scale-Breathing Problems, Baseline, Median (participants with SSc-RP [2]; [8]): 0.450 | Visual Analog Scale-Breathing Problems, Change from Baseline, Mean (participants with SSc-RP [2]; [8]): 0.925 | Visual Analog Scale-Breathing Problems, Change from Baseline, Median (participants with SSc-RP [2]; [8]): 0.300 | Visual Analog Scale-Breathing Problems, In Clinic Visit (Day 12), Mean (participants with SSc-RP [2]; [8]): 1.950 | Visual Analog Scale-Breathing Problems, In Clinic Visit (Day 12), Median (participants with SSc-RP [2]; [8]): 0.450 | Visual Analog Scale-Breathing Problems, Percent Change from Baseline, Mean (participants with SSc-RP [2]; [8]): 213.54% | Visual Analog Scale-Breathing Problems, Percent Change from Baseline, Median (participants with SSc-RP [2]; [8]): 115.63% | Visual Analog Scale-Raynaud's, Baseline, Median (participants with SSc-RP [3]; Tadalafil 5 mg): 0.500 | Visual Analog Scale-Raynaud's, Change from Baseline, Median (participants with SSc-RP [3]; Tadalafil 5 mg): −0.150 | Visual Analog Scale-Raynaud's, In Clinic Visit (Day 12), Mean (participants with SSc-RP [3]; Tadalafil 5 mg): 1.500 | Visual Analog Scale-Raynaud's, In Clinic Visit (Day 12), Median (participants with SSc-RP [3]; Tadalafil 5 mg): 0.400 | Visual Analog Scale-Raynaud's, Percent Change from Baseline, Mean (participants with SSc-RP [3]; Tadalafil 5 mg): −20.78% | Visual Analog Scale-Raynaud's, Percent Change from Baseline, Median (participants with SSc-RP [3]; Tadalafil 5 mg): −37.35% | Overall Change in Severity, Baseline, Mean (participants with SSc-RP [4]; [8]): 3.600 | Overall Change in Severity, Baseline, Median (participants with SSc-RP [4]; [8]): 2.550 | Overall Change in Severity, Change from Baseline, Mean (participants with SSc-RP [4]; [8]): −0.850 | Overall Change in Severity, Change from Baseline, Median (participants with SSc-RP [4]; [8]): −0.650 | Overall Change in Severity, In Clinic Visit (Day 12), Mean (participants with SSc-RP [4]; [8]): 2.750 | Overall Change in Severity, In Clinic Visit (Day 12), Median (participants with SSc-RP [4]; [8]): 1.500 | Overall Change in Severity, Percent Change from Baseline, Mean (participants with SSc-RP [4]; [8]): −31.76% | Overall Change in Severity, Percent Change from Baseline, Median (participants with SSc-RP [4]; [8]): −36.22%
